Data as given in patent US20220218659A1, “PI3K/LYN-ACLY Signaling Inhibition” (Institute For Cancer Research d/b/a The Research Institute …, priority 2019, published 2022).
No end group written: not given here. *: point of attachment. Biotin = O=C1N[C@H]2[C@H](CS[C@H]2CCCCC(=O)*)N1

Tests used:
[1] = ACLY peptide binding on PIP specificity plates; details: PIP specificity plate, 20 pmols phosphoinositide per well, peptide 1.0 μg/ml
Description: ACLY peptides: Based on PIP2 binding motif analysis on ACLY using full length protein sequence, two PIP2 binding domains were predicted. The ACLY peptide-1 in the ATP-grasp domain sequence (peptide-1: […]; SEQ ID NO:15) and the ACLY peptide-2, in the CoA-binding domain sequence (peptide-2: […]; SEQ ID NO:5). N-terminally biotinylated peptides were synthesized (Genscript, Inc). ACLY-PIP specificity binding assay was performed using the N-terminally biotinylated peptides at 1.0 μg/ml concentration in 1% goat serum in Tris buffer saline (TB S) and the Cova PIP Specificity plate H-6300 (Echelon Biosciences) according to manufactures instructions. In brief, ACLY peptide-1 and peptide-2 at final concentration of 1.0 μg/ml in 100 μl volume were incubated for overnight at 4° C. After three washes with TBST buffer, the wells were incubated with 100 μl of HRP-conjugated Biotin antibody, followed by three washes. The bound peptides were detected with Super-Signal ELISA-Pico chemiluminescent substrate kit from ThermoFisher and reading the absorbance at 450 nm for 3-30 minutes.

[2] = test system: Histone H3 acetylation (H3K9ac); test: Histone H3 (H3K9) acetylation by Western blot in HL-60 cells; type: cell-based; details: 16 hours, 10% FBS in RPMI
Description: Therefore, to evaluate the link between PI3K/Lyn and ACLY-mediated pathways in AML, HL-60 AML cell line were also used, in addition to primary patient-derived AML cells. HL-60 cell line was from American Type Culture Collection (ATCC). It was decided to use this particular HL-60 cell line for consistency herein since HL-60 cells express the active NRAS oncoprotein, similarly like the patient-derived AML cells (FIG. 7 and FIG. 8). HL-60 AML cell line was grown in RPMI 1640 medium supplemented with 10% fetal bovine serum, 2 mM 1-glutamine and 1% penicillin-streptomycin and maintained at 37° C. and 5% CO2. Cells were treated with the Lyn inhibitor (100 nM-1000 nM Bafetinib) or PI3K inhibitors (500 nM-2.5 μM LY294002 or 100 nM-2.0 μM BKM120) or vehicle (0.1% DMSO) in the presence of 10% FBS in RPMI media for 16 hours for Acetyl CoA measurement, phospholipid and histone acetylation analysis.
HL-60 cell line was seeded at a concentration of 1×10^6/ml in 10 ml media onto 40 ml culture-flask and cultured for 16 hours in the presence of indicated concentration of LYN or PI3K inhibitors or DMSO (0.1% dimethyl sulfoxide). Cells were harvested and lysed in 1 ml of ice-cold Pierce IP lysis buffer (Pierce Inc.) in the presence of Proteinase and phosphatase inhibitor cocktail (Thermofisher) and sonicated for 20 seconds. Lysates were cleared by centrifugation at 12000 rpm in cold conditions on bench top centrifuge, and the supernatant was used for protein determination by BCA assay kit (Pierce Inc). Equivalent amounts of protein lysate were mixed with sodium dodecylsulfate (2×SDS) and boiled for 8 minutes. Samples were resolved by 4-12% gradient sodium dodecylsulfate-polyacrylamide gel electrophoresis (NOVEX; Invitrogen) and blotted onto nitrocellulose filters. Membranes were blocked for 1 hour in 0.1% Tween-20 and 5% bovine serum albumin. Primary antibodies for H3K9ac, histone H3, Lyn, ACLY and GAPDH were added to 5% BSA at concentrations provided by the vendor's instructions and incubated with membranes overnight at 4° C. before removing by washing. […]

Acetyl-CoA = Acetyl-CoA measurement in HL-60 cells; type: cell-based; details: 16 hours
Description: HL-60 cells were cultured as above, treated with Bafetinib (500 nM), PI3K inhibitors (1 μM) for 16 hours. After treatment, cells were washed with medium and harvested for acetyl-CoA extraction from 5×10^6 cells per condition in triplicate, acetyl-CoA levels were measured using Pico-Probe Acetyl-CoA Fluorometric Assay kit (BioVision, Milpitas, Calif.) following the manufacturer's instructions.

ACLY binding to PIP2 = test: Phospho-ACLY bound to PIP2 (PIP2 immunoprecipitation and western blotting) in transfected HEK293T cells; type: cell-based, human; details: ACLY-HA with active SRC kinase, 2 μM, 15 hours
PI/PIP/PIP2 = test: Lipidomic analysis of PI, PIP and PIP2 in HL-60 cells; type: cell-based; details: 16 hours, 10% FBS in RPMI
Description: Phosphoinositides from HL60 cells treated with PI3K and Lyn inhibitors were compared with those from control cells (0.1% DMSO in culture medium). HL60 cells were treated with PI3K inhibitors LY294002, BKM120 or the Lyn inhibitor Bafetinib for 16 hours followed by TCA precipitation and freezing at −80° C. TCA precipitates were spiked with 20 ng of two internal standards (PIP 37:4; PIP2 37:4) and subjected to lipid extraction as described below and analyzed via LC/MS/MS. TMS-diazomethane derivatized phospholipids including phosphatidyl inositol (PI), phosphatidylinositol phosphate (PIP) and phosphatidylinositol bisphosphate (PIP2) values were measured using UPLC/MS/MS MRM Mass Spectrometry. […] Phosphatidylinositol trisphosphate (PIP3) was also measured but levels were too low in these cells to be analyzed. The endogenous PIP3 is several orders of magnitude less abundant than PIP2 in cells. It is well established that the basal PIP3 level is often undetectable in cells due to its low quantity and short halflife. […]
UPLC/MS: Dried, methylated cell extracts were suspended in 100 μl 100% methanol (LC-MS Optima grade, Fisher) prior to chromatographic separation and MS/MS. […] The effluent was monitored by a Waters XEVO TQ-S MS/MS in multiple reaction monitoring (MRM) in positive ion mode. […]

HL-60 AML cells = test: MTT assay, growth of HL-60 AML cells; type: cell-based; details: within 72 hours
Description: HL-60 cells were treated with various concentrations of Bafetinib (Lyn kinase), BKM120 (PI3K) and BMS 303141 (ACLY) inhibitors in the presence of 10% RPMI media for 72 hours. The growth-inhibitory effect was examined using a […] assay (MTT; Sigma-Aldrich) as per the instructions of the manufactured kit. The experiment was performed in triplicate.

For “ALTRKLIKKADQKGV (Biotin-ALTRKLIKKADQKGV) [ACLY peptide-2]”, the “binding to PI(4,5)P2” value [1] was “binds to PI(4,5)P2”.

With `Nc1cc(C(F)(F)F)c(-c2cc(N3CCOCC3)nc(N3CCOCC3)n2)cn1` [BKM120, Buparlisib] the “Histone H3 acetylation blocked (densitometric analysis)” value (shortened to “Histone H3 acetylation blocked”) [2] was 97%, the “synthesis of Acetyl-CoA” value (Acetyl-CoA) was “significantly prevented” and the “phospho-ACLY bound to PIP2 versus DMSO” value (ACLY binding to PIP2) was “significant difference”. The “levels of total PI/PIP/PIP2 compared to DMSO control” value (PI/PIP/PIP2) was “overall decrease”.

With `O=c1cc(N2CCOCC2)oc2c(-c3ccccc3)cccc12` [LY294002] the “Histone H3 acetylation blocked” value [2] was 60%.

`COc1ccc(-c2ccccc2)cc1NS(=O)(=O)c1cc(Cl)cc(Cl)c1O` [BMS303141] gave an IC50 (HL-60 AML cells) of 10 to 20 µM.

With `Cc1ccc(NC(=O)c2ccc(CN3CC[C@H](N(C)C)C3)c(C(F)(F)F)c2)cc1Nc1nccc(-c2cncnc2)n1` [Bafetinib] the “Histone H3 acetylation blocked” value [2] was 90%.
